We go through 25 compounds from patent US8354414B2, “Substituted bicyclic pyrimidines” (Cephalon, Inc, priority 2006, dated 2013).

Where two headings read alike, the source gives them in different places.

In one series the target is T1, CDK5/GST-p25 (Homo sapiens, UniProt Q00535).
T1 construct: The final construct, encoding for full-length human CDK5; made in house; host or cells: Sf21 insect cells (baculovirus co-infection)
Briefly: Inhibition of CDK5/GST-p25 kinase activity (ELISA with time-resolved fluorescence readout). It is filed as biochemical. The gist of the method:
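Sf21-coexpressed full-length human CDK5 with GST-p25 (p35 aa 108-307), glutathione-purified, at 2 ng/ml was reacted for 20 min at 37 °C on plate-coated GST-Rb(773-928). Buffer was 20 mM HEPES pH 7.2, 10 µM ATP, 10 mM MgCl2 and 2.5% DMSO. Phospho-Rb Ser-780 was detected by Eu-labelled antibody TRF, and IC50 curves were fitted.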

The target of another series is T2, His6-GSK-3β (Homo sapiens, UniProt P49841).
T2 construct: made in house; host or cells: Sf21 insect cells (baculovirus)
T2 sequence (P49841 2-419): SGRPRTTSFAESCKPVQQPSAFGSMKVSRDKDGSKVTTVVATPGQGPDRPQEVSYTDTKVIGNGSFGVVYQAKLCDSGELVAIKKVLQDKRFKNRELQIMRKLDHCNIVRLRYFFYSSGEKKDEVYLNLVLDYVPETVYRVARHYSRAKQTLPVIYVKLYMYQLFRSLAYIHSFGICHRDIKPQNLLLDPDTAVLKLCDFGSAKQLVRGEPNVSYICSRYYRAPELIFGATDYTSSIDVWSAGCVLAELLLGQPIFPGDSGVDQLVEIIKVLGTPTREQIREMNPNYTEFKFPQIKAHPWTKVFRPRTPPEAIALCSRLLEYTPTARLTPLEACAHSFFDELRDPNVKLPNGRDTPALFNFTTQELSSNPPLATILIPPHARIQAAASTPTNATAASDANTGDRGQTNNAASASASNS
Put plainly: Inhibition of His6-GSK-3β kinase activity (ELISA-based format, time-resolved fluorescence readout). It is filed as biochemical. Particulars: for IC50: read-out: GSK3β IC50. The gist of the method:
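N-terminal His6-tagged full-length human GSK-3β (aa 2-419) expressed in Sf21 cells, 200 ng/ml, phosphorylating plate-coated GST-Rb with 20 μM ATP in pH 7.2 HEPES buffer, 30 min at 37° C. Phospho-Rb (Ser-780) detected by antibody plus Eu-labelled secondary, time-resolved fluorescence; IC50 from curves.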

T1 sequence (Q00535 whole entry): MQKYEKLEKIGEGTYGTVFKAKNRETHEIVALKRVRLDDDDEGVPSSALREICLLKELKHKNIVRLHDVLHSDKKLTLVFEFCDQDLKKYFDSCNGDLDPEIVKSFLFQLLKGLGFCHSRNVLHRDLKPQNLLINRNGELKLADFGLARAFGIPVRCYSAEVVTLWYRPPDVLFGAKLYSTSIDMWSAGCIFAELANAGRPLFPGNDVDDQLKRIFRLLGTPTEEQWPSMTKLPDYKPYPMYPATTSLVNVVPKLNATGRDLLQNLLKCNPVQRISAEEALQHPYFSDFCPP
T1 sequence (Q15078 108-307 partner limits assumed): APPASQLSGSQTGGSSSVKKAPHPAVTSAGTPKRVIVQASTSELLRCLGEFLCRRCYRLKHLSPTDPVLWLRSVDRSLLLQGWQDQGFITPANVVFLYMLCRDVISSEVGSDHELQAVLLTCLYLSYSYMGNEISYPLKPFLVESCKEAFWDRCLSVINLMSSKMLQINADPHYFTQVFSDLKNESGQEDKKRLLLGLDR

The compound `CCCn1cc2c(C3C(=O)Nc4ccc(Br)cc43)nc(NCCN3CCOCC3)nc2n1` (stereo not drawn) [Example 202, 5-Bromo-3-[6-(2-morpholin-4-yl-ethylamino)-2-propyl-2H-pyrazolo [3,4-d]pyrimidin-4-yl]-1,3-dihydro-indol-2-one] returned a melting point of 299 to 303 °C. Moreover, the half-inhibitory concentration (IC50) against CDK5/GST-p25 (class symbols) was below 300 nM. The IC50 at His6-GSK-3β (class symbols) was below 300 nM.
As for `Cn1ncc2c(C3C(=O)Nc4ccc(C#N)cc43)ncnc21` (stereo not drawn) [Example 108, 3-(1-methyl-1H-pyrazolo[3,4-d]pyrimidin-4-yl)-2-oxo-2,3-dihydro-1H-indole-5-carbonitrile], the melting point was > 300 °C (dec.). This compound also came in with an IC50 against CDK5/GST-p25 (class symbols) below 300 nM. Moreover, at His6-GSK-3β (class symbols), the IC50 is above 10000 nM.
For the compound `CCCCCn1cc2c(C3C(=O)Nc4ccc(C#N)cc43)nc(NCc3ccncc3)nc2n1` (stereo not drawn) [Example 292, 2-Oxo-3-{2-pentyl-6-[(pyridin-4-ylmethyl)-amino]-2H-pyrazolo [3,4-d]pyrimidin-4-yl}-2,3-dihydro-1H-indole-5-carbonitrile], the melting point was 288 to 290 °C (dec.). On CDK5/GST-p25 (class symbols), this compound returned a concentration for half-maximal inhibition (IC50) below 300 nM. Besides, at His6-GSK-3β (class symbols), the concentration for half-maximal inhibition (IC50) was below 300 nM.
The compound `Cn1cc2c(C3C(=O)Nc4ccc(C#N)cc43)ncnc2n1` (stereo not drawn) [Example 84, 3-(2-Methyl-2H-pyrazolo [3,4-d]pyrimidin-4-yl)-2-oxo-2,3-dihydro-1H-indole-5-carbonitrile] returned a melting point above 350 °C. Also, the IC50 against CDK5/GST-p25 (class symbols) was below 300 nM. The IC50 on His6-GSK-3β (class symbols) is 300 to 3000 nM.
The corresponding values for `CCCn1cc2c(C3C(=O)Nc4ccc(C#N)cc43)nc(NCCc3cccnc3)nc2n1` (stereo not drawn) [Example 185, 2-Oxo-3-[2-propyl-6-(2-pyridin-3-yl-ethylamino)-2H-pyrazolo [3,4-d]pyrimidin-4-yl]-2,3-dihydro-1H-indole-5-carbonitrile] are 302 to 305 °C, below 300 nM and below 300 nM.
The corresponding values for `CCCn1cc2c(C3C(=O)Nc4ccc(C#N)cc43)nc(NCCc3ccccn3)nc2n1` (stereo not drawn) [Example 187, 2-Oxo-3-[2-propyl-6-(2-pyridin-2-yl-ethylamino)-2H-pyrazolo[3,4-d]pyrimidin-4-yl]-2,3-dihydro-1H-indole-5-carbonitrile] are above 300 °C, below 300 nM and below 300 nM.
In turn, `O=C1Nc2cc(F)ccc2C1c1ncnc2nn(C3CCCCC3)cc12` (stereo not drawn) [Example 50, 3-(2-cyclohexyl-2H-pyrazolo[3,4-d]pyrimidin-4-yl)-6-fluoro-1,3-dihydro-indol-2-one] yielded a melting point of 297 to 300 °C. The same compound registered an IC50 at CDK5/GST-p25 (class symbols) of 300 to 3000 nM. Further, the IC50 on His6-GSK-3β (class symbols) lay within 300 to 3000 nM.
In turn, `O=C1Nc2ccc(Cl)cc2C1c1nc(NCCCN2CCOCC2)nc2nn(C3CCCC3)cc12` (stereo not drawn) [Example 278, 5-Chloro-3-[2-cyclopentyl-6-(3-morpholin-4-yl-propylamino)-2H-pyrazolo[3,4-d]pyrimidin-4-yl]-1,3-dihydro-indole-2-one] returned a melting point of 250 to 254.5 °C. The IC50 at CDK5/GST-p25 (class symbols) fell in the range of 300 to 3000 nM. Further, the IC50 at His6-GSK-3β (class symbols) was below 300 nM.
In the case of `O=C1Nc2cc(F)ccc2C1c1ncnc2c1cnn2C1CCCC1` (stereo not drawn) [Example 66, 3-(1-Cyclopentyl-1H-pyrazolo[3,4-d]pyrimidin-4-yl)-6-fluoro-1,3-dihydro-indol-2-one], the melting point lay in the range of 230 to 233 °C. Moreover, on CDK5/GST-p25 (class symbols), the half-maximal inhibitory concentration (IC50) was above 10000 nM. Besides, at His6-GSK-3β (numeric bounds), the IC50 was above 3000 nM.
As for `CCCn1cc2c(C3C(=O)Nc4ccc(Br)cc43)nc(NCc3ccncc3)nc2n1` (stereo not drawn) [Example 190, 5-Bromo-3-{2-propyl-6-[(pyridine-4-ylmethyl)-amino]-2H-pyrazolo[3,4-d]pyrimidin-4-yl}-1,3-dihydro-indol-2-one], the melting point was above 300 °C. The same compound registered an IC50 at CDK5/GST-p25 (class symbols) below 300 nM. Also, at His6-GSK-3β (class symbols), the IC50 is below 300 nM.
Regarding `CCCn1cc2c(C3C(=O)Nc4ccc(Br)cc43)nc(NCCN(C)C)nc2n1` (stereo not drawn) [Example 197, 5-Bromo-3-[6-(2-dimethylamino-ethylamino)-2-propyl-2H-pyrazolo[3,4-d]pyrimidin-4-yl]-1,3-dihydro-indol-2-one], the melting point lay in the range of 270 to 274 °C. In addition, the IC50 against CDK5/GST-p25 (class symbols) was below 300 nM. Further, the 50% inhibitory concentration (IC50) at His6-GSK-3β (class symbols) is below 300 nM.
Regarding `CCCCCn1cc2c(C3C(=O)Nc4ccc(C(F)(F)F)cc43)nc(NCCN)nc2n1` (stereo not drawn) [Example 288, 3-[6-(2-Amino-ethylamino)-2-pentyl-2H-pyrazolo [3,4-d]pyrimidin-4-yl]-5-trifluoromethyl-1,3-dihydro-indol-2-one], the melting point is 192 °C (dec.). The IC50 against CDK5/GST-p25 (class symbols) fell in the range of 300 to 3000 nM. Besides, at His6-GSK-3β (class symbols), the IC50 is below 300 nM.
On the same counts, the results for `Cl.NCCCNc1nc(C2C(=O)Nc3ccc(C(F)(F)F)cc32)c2cn(C3CCCC3)nc2n1` (stereo not drawn) [Example 254, 3-[6-(3-Amino-propylamino)-2-cyclopentyl-2H-pyrazolo[3,4-d]pyrimidin-4-yl]-5-trifluoromethyl-1,3-dihydro-indol-2-one hydrochloride salt] are 304 to 306 °C, 300 to 3000 nM and below 300 nM.
On the same counts, the results for `CCCn1ncc2c(C3C(=O)Nc4ccc(C#N)cc43)ncnc21` (stereo not drawn) [Example 93, 3-(1-propyl-1H-pyrazolo[3,4-d]pyrimidin-4-yl)-2-oxo-2,3-dihydro-1H-indole-5-carbonitrile] are above 300 °C, above 10000 nM and above 10000 nM.
The compound `CN(C)CCNc1nc(C2C(=O)Nc3ccc(C(F)(F)F)cc32)c2cn(C3CCCC3)nc2n1` (stereo not drawn) [Example 251, 3-[2-Cyclopentyl-6-(2-dimethylamino-ethylamino)-2H-pyrazolo[3,4-d]pyrimidin-4-yl]-5-trifluoromethyl-1,3-dihydro-indol-2-one] displayed a melting point of 211 to 213 °C. On CDK5/GST-p25 (numeric bounds), this compound gave a concentration for half-maximal inhibition (IC50) above 3000 nM. Besides, at His6-GSK-3β (class symbols), the IC50 was below 300 nM.
Take `CC(C)Cn1cc2c(C3C(=O)Nc4ccc(Br)cc43)nc(Cl)nc2n1` (stereo not drawn) [Example 262, 5-Bromo-3-(6-chloro-2-isobutyl-2H-pyrazolo[3,4-d]pyrimidin-4-yl)-1,3-dihydro-indol-2-one]: the melting point is 295 °C (dec.). On CDK5/GST-p25 (class symbols), the IC50 is above 10000 nM. Moreover, the IC50 on His6-GSK-3β (numeric bounds) was above 3000 nM.
Compound `O=C1Nc2ccc(Br)cc2C1c1ncnc2nn(C3CCCCC3)cc12` (stereo not drawn) [Example 46, 5-Bromo-3-(2-cyclohexyl-2H-pyrazolo[3,4-d]pyrimidin-4-yl)-1,3-dihydro-indol-2-one] registered a melting point of 285 to 290 °C. Moreover, the half-inhibitory concentration (IC50) against CDK5/GST-p25 (class symbols) was below 300 nM. The half-maximal inhibitory concentration (IC50) at His6-GSK-3β (class symbols) was below 300 nM.
The compound `N#Cc1ccc2c(c1)NC(=O)C2c1ncnc2nn(C3CCCC3)cc12` (stereo not drawn) [Example 38, 3-(2-Cyclopentyl-2H-pyrazolo [3,4-d]pyrimidin-4-yl)-2-oxo-2,3-dihydro-1H-indole-6-carbonitrile] displayed a melting point of 340 to 344 °C. At CDK5/GST-p25 (class symbols), this compound returned an IC50 above 10000 nM. On His6-GSK-3β (class symbols), the half-inhibitory concentration (IC50) was above 10000 nM.
For the compound `CCCn1cc2c(C3C(=O)Nc4ccc(Br)cc43)nc(Cl)nc2n1` (stereo not drawn) [Example 188, 5-Bromo-3-(6-chloro-2-propyl-2H-pyrazolo[3,4-d]pyrimidin-4-yl)-1,3-dihydro-indol-2-one], the melting point is above 300 °C. This compound also displayed an IC50 against CDK5/GST-p25 (class symbols) above 10000 nM. Besides, the IC50 on His6-GSK-3β (numeric bounds) was above 3000 nM.
Compound `CC(C)CNc1nc(C2C(=O)Nc3ccc(C(F)(F)F)cc32)c2cn(C3CCCC3)nc2n1` (stereo not drawn) [Example 249, 3-(2-Cyclopentyl-6-isobutylamino-2H-pyrazolo[3,4-d]pyrimidin-4-yl)-5-trifluoromethyl-1,3-dihydro-indol-2-one] yielded a melting point of 282 to 285 °C. Besides, the IC50 against CDK5/GST-p25 (class symbols) was above 10000 nM. The “GSK3β % @10 μM” value on His6-GSK-3β (@10 μM) is listed as 52% @10 μM.
In the case of `CCCn1cc2c(C3C(=O)Nc4ccc(C#N)cc43)ncnc2n1` (stereo not drawn) [Example 96, 3-(2-propyl-1H-pyrazolo[3,4-d]pyrimidin-4-yl)-2-oxo-2,3-dihydro-1H-indole-5-carbonitrile], the melting point was above 300 °C. This compound had a concentration for half-maximal inhibition (IC50) at CDK5/GST-p25 (class symbols) below 300 nM. Also, the IC50 on His6-GSK-3β (class symbols) is below 300 nM.
Compound `C[C@H](O)CNc1nc(C2C(=O)Nc3ccc(Br)cc32)c2cn(C3CCCC3)nc2n1` (stereo partly drawn) [Example 372] yielded a melting point above 300 °C. The inhibition at 10 µM on CDK5/GST-p25 is 77%. Besides, the IC50 on His6-GSK-3β (class symbols) was below 300 nM.
`O=C1Nc2ccc(Cl)cc2C1c1nc(NCCc2cccnc2)nc2nn(C3CCCC3)cc12` (stereo not drawn) [Example 279, 5-Chloro-3-[2-cyclopentyl-6-(2-pyridin-3-yl-ethylamino)-2H-pyrazolo[3,4-d]pyrimidin-4-yl]-1,3-dihydro-indol-2-one] returned a melting point of 277 to 281 °C. Besides, on CDK5/GST-p25 (class symbols), the IC50 is 300 to 3000 nM. Besides, on His6-GSK-3β (class symbols), the concentration for half-maximal inhibition (IC50) is below 300 nM.
The corresponding values for `C=CCn1cc2c(C3C(=O)Nc4ccc(C#N)cc43)ncnc2n1` (stereo not drawn) [Example 76, 3-(2-Allyl-2H-pyrazolo[3,4-d]pyrimidin-4-yl)-2-oxo-2,3-dihydro-1H-indole-5-carbonitrile] are above 300 °C, below 300 nM and 300 to 3000 nM.
On the same counts, the results for `CCOCCn1cc2c(C3C(=O)Nc4ccc(Cl)cc43)nc(NCc3ccncc3)nc2n1` (stereo not drawn) [Example 214, 5-Chloro-3-{2-(2-ethoxy-ethyl)-6-[(pyridine-4-ylmethyl)-amino]-2H-pyrazolo[3,4-d]pyrimidin-4-yl}-1,3-dihydro-indol-2-one] are 298 to 299 °C, below 300 nM and below 300 nM.
